This is an account of results in patent US20100004248A1, “Use of a Nitric Oxide Synthase Modulator for the Treatment of Cardiac Indications” (priority 2005, published 2010).

The test system of data set [1] is intact heart, beta-adrenergic stimulation by ISO. Kind of data set: Contractility response of intact heart to isoproterenol (ISO). The format is in vivo, mouse. The source says: Regulation of acute beta-adrenergic stress by PDE5a inhibition (resulting in a rise in cGMP and activation of protein kinase G) requires the activity of nitric oxide synthase (NOS). […] This can be offset by chronic distal activation of the NO target protein soluble guanylate cyclase 9sGC). At the left are bars depicting the contractility response of an intact heart to ISO before and after co-administration of SIL. The ISO response is normally blunted by nearly 80%. The middle bars show data from mice with NOS inhibited by L-NAME (1 mg/L in drinking water). […] However, if one continues to treat hearts with the soluble guanylate cyclase activator (BAY 41-8543) for a week-all the while continuing NOS inhibition with L-NAME, the ability of SIL to suppress adrenergic stimulation is restored.

Data set [2] relates to C57/BL6 WT mice subjected to TAC pressure overload. Kind of data set: In vivo hemodynamics, PV loop analysis, in TAC mice. More on the design: species or system mouse. The following applies: TAC 3 weeks, oral co-treatment 1 mg/g food, mean ± sem. The source says:
(§1) Male NOS3 null mice (NOS3^−/−) and C57/BL6 WT controls (8-11 weeks, Jackson Labs, Bar Harbor, Me., USA) were used. Pressure overload was produced by transverse aorta constriction (TAC). Briefly, The aortic arch was isolated by entering the extrapleural space between the second and third rib, and afterwards the transverse aorta was isolated between the right and left carotid arteries. A 7-0 prolene suture ligature was tied around the transverse aorta against a 27-gauge needle to produce a 65-70% constriction after the removal of the needle. After closing the chest, animals were extubated, and a subcutaneous injection of morphine sulphate 0.2 mg, was administered before they returned to their cages. Animal's ventilatory and circulatory status was checked every 30 minutes during the first 2 hours. Sham-operated mice underwent the same operation except for aortic constriction. […] Animals were randomized to receive placebo or BH4 (120 mg/kg/d) for the next 5 weeks. At the end of the study, i.e. at 9 weeks, animal were sacrificed to receive tissue or underwent in vivo PV-loop analysis. […] Control mice were subject to sham operations, and animals were studied 3-9 weeks following surgery. An additional group of wild-type animals were subjected to TAC for 3 weeks while co-treated with oral tetrahydrobiopterin (BH4) (Sigma-Aldrich) (1 mg/g food) mixed in their rodent chow, providing 5 mg/day based on 4-6 g daily diet^8.
(§2) Two different BH4 treatment protocols are used. For experiments related to FIGS. 1-7, where prevention of cardiac indications is described BH4 is provided orally as a treatment starting 2 days after TAC surgery (once mice are again eating oral diet). For those figures related to treatment of established cardiac indications, FIGS. 8-23, BH4 is provided orally but this is delayed for 4 weeks to establish substantial cardiac hypertrophy, remodeling, and NOS-uncoupling. Then the treatment is provided for the remaining 5 week period.
In vivo left ventricular (LV) function was assessed by pressure-volume catheter^12,13. Mice were anesthetized with 1-2% isoflurane, urethane ([…], i.p.), etomidate (5-10 mg/kg, i.p.), and morphine (1-2 mg/kg, i.p.), underwent tracheostomy, and were ventilated with 6-7 μL/g tidal volume and 130 breaths/min. Volume expansion (12.5% human albumin, 50-100 μL over 5 min) was provided through a 30 G cannula via the right external jugular vein. The left ventricular apex was exposed through an incision between the 7-8th rib, and a catheter, specifically a 1.4 Fr PV catheter (SPR 839, Millar Instruments, Inc.), was advanced through the apex to lie along the longitudinal axis. Absolute volume was calibrated, and pressure-volume data was measured at steady state and during transient reduction of venous return as reported^13

Data set [3] shares this test system. The experiment in a line: Body weight and heart weight in mice subjected to transverse aortic constriction (TAC). The format is in vivo, mouse. As to conditions: TAC 3 weeks, oral co-treatment 1 mg/g food, mean ± sem.
Excerpt: as §1, with “An additional group of wild-type animals were subjected to TAC for 3 weeks while co-treated with oral tetrahydrobiopterin (BH4) (Sigma-Aldrich) (1 mg/g food) mixed in their rodent chow, providing 5 mg/day based on 4-6 g daily diet^8.” left out

The test system is the same in data set [4]. Kind of data set: Transthoracic echocardiography in conscious TAC mice. Format: in vivo, mouse.
Excerpt: as §1, §2
For folate studies, C57/BL6 WT were treated with folate (10 mg/kg/day) or with placebo for a 9 week period during which time the hearts were exposed to TAC.
In vivo cardiac morphology was assessed by transthoracic echocardiography (Acuson Sequoia C256, 13 MHz transducer, Siemens) in conscious mice. M-mode left ventricular (LV) end-systolic and end-diastolic dimensions were averaged from 3-5 beats. Left ventricular ejection fraction (LVEF) and percent fractional shortening (% FS) were calculated as: LVEF=[(LVEDD)^3-(LVESD)^3]/(LVEDD)^3×100; % FS=(LVEDD−LVESD)/LVEDD×100. Wall thickness of lateral freewall and intraventricular septum were averaged. Studies and analysis were performed blinded to heart condition.

For the next data set, the target named is T1, NOS (Mus musculus, UniProt P70313).
T1 construct: from tissue; host or cells: mouse left ventricular tissue homogenate
T1 sequence (P70313 2-1202): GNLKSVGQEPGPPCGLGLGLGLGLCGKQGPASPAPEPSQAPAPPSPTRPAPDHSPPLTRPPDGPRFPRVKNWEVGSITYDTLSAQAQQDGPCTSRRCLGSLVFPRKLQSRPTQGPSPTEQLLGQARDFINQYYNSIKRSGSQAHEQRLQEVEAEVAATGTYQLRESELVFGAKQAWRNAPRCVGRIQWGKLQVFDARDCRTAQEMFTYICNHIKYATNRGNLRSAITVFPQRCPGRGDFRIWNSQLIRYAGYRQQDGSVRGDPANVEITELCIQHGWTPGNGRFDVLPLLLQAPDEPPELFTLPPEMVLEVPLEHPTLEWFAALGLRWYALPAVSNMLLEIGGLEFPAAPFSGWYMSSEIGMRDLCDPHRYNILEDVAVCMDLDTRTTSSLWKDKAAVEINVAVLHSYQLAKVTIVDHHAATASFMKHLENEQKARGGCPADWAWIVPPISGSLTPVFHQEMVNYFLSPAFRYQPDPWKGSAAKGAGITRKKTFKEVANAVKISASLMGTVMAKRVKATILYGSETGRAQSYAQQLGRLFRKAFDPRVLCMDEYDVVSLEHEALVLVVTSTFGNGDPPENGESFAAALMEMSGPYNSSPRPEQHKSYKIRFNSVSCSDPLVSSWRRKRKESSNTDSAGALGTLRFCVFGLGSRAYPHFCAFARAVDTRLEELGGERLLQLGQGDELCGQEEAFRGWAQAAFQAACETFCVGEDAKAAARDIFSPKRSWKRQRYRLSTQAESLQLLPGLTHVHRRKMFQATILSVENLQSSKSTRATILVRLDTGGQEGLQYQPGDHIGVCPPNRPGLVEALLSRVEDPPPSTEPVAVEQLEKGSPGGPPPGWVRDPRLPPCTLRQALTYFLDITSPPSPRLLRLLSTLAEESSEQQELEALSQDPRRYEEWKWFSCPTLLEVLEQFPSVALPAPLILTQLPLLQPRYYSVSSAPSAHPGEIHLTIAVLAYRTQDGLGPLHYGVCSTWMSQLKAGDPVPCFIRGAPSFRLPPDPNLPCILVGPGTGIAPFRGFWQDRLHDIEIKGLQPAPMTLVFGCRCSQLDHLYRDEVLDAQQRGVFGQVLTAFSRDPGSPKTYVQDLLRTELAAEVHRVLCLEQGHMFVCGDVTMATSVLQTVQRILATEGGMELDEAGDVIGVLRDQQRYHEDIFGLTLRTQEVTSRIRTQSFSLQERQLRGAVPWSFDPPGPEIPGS
The experiment in a line: Luminol chemiluminescence of heart tissue extracts with or without co-incubation with L-NAME (NOS-derived O2−). The format is biochemical. As to conditions: 1 mM co-incubation. Here is the method:
Given the decline in NO-synthetic activity, it was next tested whether NOS-derived O2^− increased with TAC. Tissue extracts were subjected to luminol chemiluminescence assay with or without co-incubation with the NOS inhibitor L-NAME (1 mM). The relative contribution of NOS was minimal under basal conditions, but rose markedly (˜50%) after 3- and 9-weeks TAC (FIG. 6D). Control data in NOS3^−/− hearts confirmed this to be from NOS3 and not the other NOS isoforms.
Reactive oxygen species generation was examined by several independent methods. Superoxide production in left ventricular tissue homogenates was determined by luminol-enhanced chemiluminescence (EMD Biosciences). Flash frozen myocardium was homogenized in iced PBS buffer, centrifuged, and the precipitate re-suspended in assay buffer to a final concentration of 100 μM luminol following manufacturer's instructions. Phorbol-12-myristate-13-acetate or other oxidase stimulators were not used in the assay. Data were normalized by sample weight. […] Nitrotyrosine was also quantitatively assessed by ELISA assay (Oxis International).

The conditions of data set [5]: healthy subjects, cited from earlier work.
Data set [6] concerns Adult myocytes isolated from wild-type C57/B16 mouse hearts. The experiment in a line: Sarcomere shortening of isolated adult myocytes exposed to isoproterenol. Format: cell-based. The following applies: myocytes from 3-4 weeks TAC hearts first treated with the anti-oxidant.
[7] abbreviates: WT mice, TAC 3 weeks, oral co-treatment 1 mg/g food, mean ± sem.
Where [8] appears, read: TAC up to 9 weeks, folate 10 mg/kg/day vs placebo, p<0.05.

As to `Nc1nc(-c2nn(Cc3ccccc3F)c3ncccc23)nc(N)c1N1CCOCC1` [BAY 41-8543], the “restoration of the ability of SIL to suppress ISO stimulated contractility” value in data set [1] (acute administration of sGC activator, L-NAME for 1 week) is “does not reverse this”. In addition, the “restoration of the ability of SIL to suppress adrenergic stimulation” value in data set [1] (sGC activator for a week while continuing L-NAME) is on record as “restored”.
For `C[C@H](O)[C@H](O)[C@H]1CNc2nc(N)[nH]c(=O)c2N1` [BH4, (6R)-5,6,7,8-tetrahydrobiopterin], in data set [2], the “Arterial Elastance” value is 10.6 ± 0.7 mmHg/μL, the “Ejection Fraction” value is on record as 78.4 ± 5.8 %, the “End-diastolic Volume” value is 20.5 ± 1.9 µL and the “End-systolic Elastance” value is 115.1 ± 9.6 mmHg/μL · g. In data set [2], the “End-systolic Volume” value was found to be 4.8 ± 1.7 µL, the “Heart RateR” value was found to be 603.3 ± 22.9 min⁻¹, the “LV Systolic Pressure” value was 193.0 ± 1.7 mmHg and the “Peak Power Index” value is recorded as 75.5 ± 10.5 mmHg/s. For the same molecule, in data set [2], the Tau was 3.5 ± 0.2 ms, the dPdtmn is on record as −15743 ± 1325 mmHg/s and the dPdtmx is given as 17003 ± 1125 mmHg/s. Also, in data set [3], the “Heart Weight (HW)” value worked out at 170.3 ± 3.9 mg. In addition, in data set [4] (setting [7]), the “Fractional Shortening” value is on record as 61.7 ± 1.7 %, the “LV diameter Diastole” value was found to be 2.87 ± 0.06 mm, the “LV diameter Systole” value was 1.12 ± 0.06 mm and the Wall thickness turned out to be 1.09 ± 0.03 mm.
For the molecule `COC(=O)[C@@H](N)CCCNC(=N)N[N+](=O)[O-]` [L-NAME], the “inhibition of luminol chemiluminescence” value at NOS (3 weeks and 9 weeks WT-TAC heart lysates) is about 50%; on NOS (baseline (sham) heart lysates), under 15%.
With `CN1CC(=O)N2[C@H](c3ccc4c(c3)OCO4)c3[nH]c4ccccc4c3C[C@@H]2C1=O` [Tadalafil, tadalafil], the “time of peak plasma concentration post-dose” value in data set [5] (oral 20 mg dose) was “two”. In data set [5] (oral), the “apparent oral clearance (CL/F)” value was 2.48 L/h and the mean elimination half-life result is given as “about 17.5 h”.
Turning to `Nc1nc2ncc(CNc3ccc(C(=O)N[C@@H](CCC(=O)O)C(=O)O)cc3)nc2c(=O)[nH]1` [folate, folic acid], in data set [4] (setting [8]), the LV mass result is recorded as “reduced” and the cardiac dilation entry is on record as “diminished”. Also, the Ejection Fraction entry in data set [4] (TAC up to 9 weeks, folate 10 mg/kg/day vs placebo, p=0.05) is recorded as “significantly improved”.
For the molecule `N[C@@H](CCC(=O)N[C@@H](CS)C(=O)NCC(=O)O)C(=O)O` [reduced glutathione], the “capacity of PDE5a inhibition to blunt the beta-adrenergic response after anti-oxidant pre-treatment” value in data set [6] was “recovered”.
